Where two headings read alike, the source gives them in different places.

For data set [1] the following is noted: after 8 days of treatment for inflammation following ocular surgery; cited from earlier work.
For data set [2] the following is noted: cited from earlier work.
Data set [3] is described as follows: Release from the vehicle in the rabbit eye, measured in aqueous humor. Format: in vivo. The note with it: in the ophthalmically acceptable vehicle. As to the method:
The viscous gels that result upon administration of the aqueous suspensions of the present disclosure to the eye have residence times in the eye ranging from about 2 to about 12 hours, e.g., from about 3 to about 6 hours. The active ingredients contained in these ophthalmically acceptable vehicles are released from the gels at rates that depend on such factors as the active ingredient itself and its physical form, the extent of drug loading and the pH of the system, as well as on any drug delivery adjuvants, such as ion exchange resins compatible with the ocular surface, which can also be present.

Consider `C[C@@H]1C[C@H]2[C@@H]3CCC4=CC(=O)C=C[C@]4(C)[C@@]3(F)[C@@H](O)C[C@]2(C)[C@@]1(O)C(=O)COP(=O)(O)O` [dexamethasone phosphate], for which, in data set [1], the “median intraocular pressure vs placebo (saline 0.9%)” value is “significantly higher”. In addition, the “increase of intraocular pressure” value is 1-2 mmHg in data set [2] (after one week), 5-6 mmHg in data set [2] (after six weeks) and 3-4 mmHg in data set [2] (after two weeks).
Take `C[C@@H]1C[C@H]2[C@@H]3CCC4=CC(=O)C=C[C@]4(C)[C@@]3(F)[C@@H](O)C[C@]2(C)[C@@]1(O)C(=O)CO` [dexamethasone]: the “rise in IOP (published data)” value in data set [2] (administered without the benefit of a sustained release vehicle) is given as 3-4 mmHg.
Turning to `CC(=O)[C@@]1(O)CC[C@H]2[C@@H]3C[C@H](C)C4=CC(=O)C=C[C@]4(C)[C@@]3(F)[C@@H](O)C[C@@]21C` [fluorometholone], in data set [3], the “release rates in the rabbit eye, as measured by fluorometholone contained in the aqueous humor” value is reported as “in excess of four hours”.

These data come from patent US20150190407A1, “METHODS FOR TREATMENT OF POSTOPERATIVE INFLAMMATION WITH REDUCED INTRAOCULAR PRESSURE” (Insite Vision Incorporated, priority 2014, published 2015).
